22 compounds from ChEMBL document CHEMBL4400526, “Design, synthesis and anti-bacterial studies of piperazine derivatives against drug resistant bacteria” (2019) can be followed below.

Format in all cases: functional
The test system of experiment [1] is Staphylococcus aureus. The experiment in a line: Antibacterial activity against Staphylococcus aureus ATCC 6538 measured after overnight incubation.
In a further experiment the test system is Bacillus spizizenii. The experiment can be described thus: Antibacterial activity against Bacillus subtilis ATCC 6633 measured after overnight incubation.
In experiment [2] the test system is Escherichia coli. The experiment can be described thus: Antibacterial activity against Escherichia coli ATCC 25922 measured after overnight incubation.
Experiment [3] relates to Pseudomonas aeruginosa. The experiment can be described thus: Antibacterial activity against Pseudomonas aeruginosa ATCC 15442 measured after overnight incubation.
The next experiment concerns Klebsiella pneumoniae. The experiment in a line: Antibacterial activity against Klebsiella pneumoniae ATCC 1705 measured after overnight incubation. Conditions: ATCC BAA-1705.
Experiment [4] has as its system Staphylococcus aureus. The experiment can be described thus: Antibacterial activity against methicillin-resistant Staphylococcus aureus clinical isolates measured after overnight incubation.
Another experiment relates to Streptococcus pyogenes. The experiment in a line: Antibacterial activity against Streptococcus hemolyticus clinical isolates measured after overnight incubation.
Experiment [5] deals with Escherichia coli. The experiment in a line: Antibacterial activity against Escherichia coli clinical isolates measured after overnight incubation.
Experiment [6] deals with Pseudomonas aeruginosa. The experiment can be described thus: Antibacterial activity against Pseudomonas aeruginosa clinical isolates measured after overnight incubation.
The subject of experiment [7] is Staphylococcus epidermidis. The experiment can be described thus: Antibacterial activity against Staphylococcus epidermidis.
For experiment [8], the system named is Staphylococcus aureus. The experiment in a line: Antibacterial activity against Staphylococcus aureus.
Experiment [9] concerns Escherichia coli. The experiment can be described thus: Antibacterial activity against Escherichia coli.

In brackets after ≈: the same amount, converted by molar mass. Activity calls are given as the source filed them.

A word on the MIC: it is the smallest concentration in the dilution series that meets the test's criterion for growth inhibition. `Nc1ccc(C(=O)O)cc1`: the MIC result in the experiment on Staphylococcus aureus [1], with Bacillus spizizenii, in the experiment with Escherichia coli [2] and with Pseudomonas aeruginosa [3] was “inactive” throughout.
With `NS(=O)(=O)c1ccc(NCCN2CCN(c3cc4c(cc3F)c(=O)c(C(=O)O)cn4C3CC3)CC2)cc1`, the MIC against Staphylococcus aureus [1] amounted to 3.7 µM; against Bacillus spizizenii, 3.7 µM; in the experiment on Escherichia coli [2] (read-out: MIC), 7.5 µM (≈ 3.97 µg/mL); in the experiment with Pseudomonas aeruginosa [3] (read-out: MIC), 7.5 µM (≈ 3.97 µg/mL); with Klebsiella pneumoniae, 7.5 µM (≈ 3.97 µg/mL); against Staphylococcus aureus [4] it was 3.7 µM (≈ 1.96 µg/mL). Further, the MIC in the experiment with Streptococcus pyogenes came out at 3.7 µM; against Escherichia coli [5] it was 7.5 µM; in the experiment with Pseudomonas aeruginosa [6], 7.5 µM.
As for `O=C(NNCN1CCN(c2cc3c(cc2F)c(=O)c(C(=O)O)cn3C2CC2)CC1)c1ccncc1`, the MIC amounted to 4.1 µM in the experiment on Staphylococcus aureus [1]; 7.7 µM against Bacillus spizizenii; 7.7 µM (≈ 3.7 µg/mL) with Escherichia coli [2] (read-out: MIC); 7.7 µM (≈ 3.7 µg/mL) with Pseudomonas aeruginosa [3] (read-out: MIC); 7.7 µM (≈ 3.7 µg/mL) against Klebsiella pneumoniae; 2 µM (≈ 0.961 µg/mL) in the experiment on Staphylococcus aureus [4]. Besides, the MIC came to 8.3 µM with Streptococcus pyogenes, 33.2 µM with Escherichia coli [5] and 33.2 µM in the experiment on Pseudomonas aeruginosa [6].
As to `O=C(O)c1ccc(NCN2CCN(c3cc4c(cc3F)c(=O)c(C(=O)O)cn4C3CC3)CC2)cc1`, the MIC in the experiment with Staphylococcus aureus [1] came out at 16.6 µM; against Bacillus spizizenii, 16.6 µM; with Escherichia coli [2] (read-out: MIC), 8.3 µM (≈ 3.99 µg/mL); in the experiment on Pseudomonas aeruginosa [3] (read-out: MIC), 8.3 µM (≈ 3.99 µg/mL); in the experiment on Klebsiella pneumoniae, 16.6 µM (≈ 7.98 µg/mL); with Staphylococcus aureus [4], 66.5 µM (≈ 32 µg/mL). The MIC against Streptococcus pyogenes, against Escherichia coli [5] and against Pseudomonas aeruginosa [6] was 8.3 µM in each case.
For the compound `CC[C@H]1OC(=O)[C@H](C)[C@@H](O[C@H]2C[C@@](C)(OC)[C@@H](O)[C@H](C)O2)[C@H](C)[C@@H](O[C@@H]2O[C@H](C)C[C@H](N(C)C)[C@H]2O)[C@](C)(O)C[C@@H](C)/C(=N\OCOCCOC)[C@H](C)[C@@H](O)[C@]1(C)O` [ROXITHROMYCIN], inhibition of growth with Staphylococcus aureus [1] (MIC) required 0.039 µM.
With `O=C(O)c1cn(C2CC2)c2cc(N3CCNCC3)c(F)cc2c1=O` [CIPROFLOXACIN], the MIC with Staphylococcus aureus [1] and in the experiment on Bacillus spizizenii was 8 µg/mL each time.
As for `O=C(O)CC1(CNCN2CCN(c3cc4c(cc3F)c(=O)c(C(=O)O)cn4C3CC3)CC2)CCCCC1`, the MIC against Bacillus spizizenii was found to be 62.1 µM; in the experiment on Escherichia coli [2] (read-out: MIC) it was 15.5 µM (≈ 7.98 µg/mL); in the experiment on Pseudomonas aeruginosa [3] (read-out: MIC), 15.5 µM (≈ 7.98 µg/mL); against Klebsiella pneumoniae, 15.5 µM (≈ 7.98 µg/mL); against Streptococcus pyogenes it was 62.1 µM; against Escherichia coli [5], 7.7 µM. The MIC against Pseudomonas aeruginosa [6] is 7.7 µM.
Turning to `C=CC1=C(C(=O)O)N2C(=O)[C@@H](NC(=O)/C(=N\OCC(=O)O)c3csc(N)n3)[C@H]2SC1` [CEFIXIME], the MIC worked out at 0.06 µM against Bacillus spizizenii; 0.06 µM (≈ 0.0272 µg/mL) in the experiment on Escherichia coli [2] (read-out: MIC); 0.06 µM (≈ 0.0272 µg/mL) with Pseudomonas aeruginosa [3] (read-out: MIC); 0.25 µg/mL in the experiment with Streptococcus pyogenes; 0.75 µg/mL in the experiment on Escherichia coli [5]; 0.5 µg/mL against Pseudomonas aeruginosa [6].
In the case of `O=C(O)c1ccc(NCN2CCNCC2)cc1`, the MIC in the experiment on Staphylococcus aureus [1] was 272 µM; against Bacillus spizizenii, 272 µM; in the experiment on Escherichia coli [2] it was 1090 µM (≈ 256 µg/mL); with Pseudomonas aeruginosa [3], 1090 µM (≈ 256 µg/mL); in the experiment with Klebsiella pneumoniae, 1090 µM (≈ 256 µg/mL).
Take `NCC1(CC(=O)O)CCCCC1`: the MIC entry with Staphylococcus aureus [1], in the experiment with Bacillus spizizenii, in the experiment with Escherichia coli [2] and in the experiment on Pseudomonas aeruginosa [3] was “inactive” each time.
Turning to `NNC(=O)c1ccncc1`, the MIC result in the experiment on Staphylococcus aureus [1], with Bacillus spizizenii, in the experiment with Escherichia coli [2] and with Pseudomonas aeruginosa [3] was “inactive” each time.
Consider `NS(=O)(=O)c1ccc(NCN2CCNCC2)cc1`, for which the MIC entry in the experiment with Staphylococcus aureus [1], in the experiment on Bacillus spizizenii, in the experiment with Escherichia coli [2], with Pseudomonas aeruginosa [3] and in the experiment on Klebsiella pneumoniae was “inactive” each time.
With `NS(=O)(=O)c1ccc(NC(=O)CC2(CNCN3CCN(c4cc5c(cc4F)c(=O)c(C(=O)O)cn5C4CC4)CC3)CCCCC2)cc1`, the MIC with Staphylococcus aureus [1] was determined as 1.4 µM; in the experiment on Bacillus spizizenii it was 1.4 µM; in the experiment with Escherichia coli [2] (read-out: MIC) it was 0.7 µM (≈ 0.468 µg/mL); with Pseudomonas aeruginosa [3] (read-out: MIC), 0.7 µM (≈ 0.468 µg/mL); in the experiment with Klebsiella pneumoniae, 0.7 µM (≈ 0.468 µg/mL); in the experiment on Staphylococcus aureus [4], 0.74 µM (≈ 0.495 µg/mL). Further, the MIC against Escherichia coli [5] and with Pseudomonas aeruginosa [6] was 0.74 µM each time.
As to `O=C(O)CC1(CNCN2CCNCC2)CCCCC1`, the MIC worked out at 119 µM against Staphylococcus aureus [1]; 119 µM against Bacillus spizizenii; 238 µM (≈ 64 µg/mL) in the experiment on Escherichia coli [2] (read-out: MIC); 238 µM (≈ 64 µg/mL) with Pseudomonas aeruginosa [3] (read-out: MIC); 238 µM (≈ 64 µg/mL) in the experiment on Klebsiella pneumoniae.
Consider `O=C(O)CC1(CNCCN2CCN(c3cc4c(cc3F)c(=O)c(C(=O)O)cn4C3CC3)CC2)CCCCC1`, for which the MIC in the experiment with Staphylococcus aureus [1] was 30.2 µM; against Bacillus spizizenii, 30.2 µM; in the experiment with Escherichia coli [2] (read-out: MIC), 7.5 µM (≈ 3.96 µg/mL); in the experiment with Pseudomonas aeruginosa [3] (read-out: MIC), 15.1 µM (≈ 7.98 µg/mL); with Klebsiella pneumoniae, 7.5 µM (≈ 3.96 µg/mL); in the experiment on Staphylococcus aureus [4] it was 30.2 µM (≈ 16 µg/mL). Moreover, the MIC in the experiment with Escherichia coli [5] and with Pseudomonas aeruginosa [6] was 3.7 µM throughout.
Take `COc1nc(NNC(=O)c2ccncc2)nc(N2CCNCC2)n1`: the MIC in the experiment with Staphylococcus aureus [1] came out at 49.2 µM; with Bacillus spizizenii, 49.2 µM; in the experiment on Escherichia coli [2] (read-out: MIC), 98.4 µM (≈ 32.5 µg/mL); in the experiment with Pseudomonas aeruginosa [3] (read-out: MIC), 98.4 µM (≈ 32.5 µg/mL); against Klebsiella pneumoniae it was 197 µM (≈ 65 µg/mL).
Turning to `NS(=O)(=O)c1ccc(NCN2CCN(c3cc4c(cc3F)c(=O)c(C(=O)O)cn4C3CC3)CC2)cc1`, the MIC against Staphylococcus aureus [1] came out at 0.9 µM; with Bacillus spizizenii it was 0.9 µM; with Escherichia coli [2] (read-out: MIC), 1.9 µM (≈ 0.98 µg/mL); in the experiment with Pseudomonas aeruginosa [3] (read-out: MIC), 1.9 µM (≈ 0.98 µg/mL); in the experiment on Klebsiella pneumoniae, 1.9 µM (≈ 0.98 µg/mL); in the experiment with Staphylococcus aureus [4], 7.7 µM (≈ 3.97 µg/mL). The MIC against Streptococcus pyogenes, in the experiment with Escherichia coli [5] and against Pseudomonas aeruginosa [6] was 7.7 µM each time.
As for `O=C(NNCN1CCNCC1)c1ccncc1`, the MIC result in the experiment with Staphylococcus aureus [1], in the experiment with Bacillus spizizenii, in the experiment with Escherichia coli [2], in the experiment with Pseudomonas aeruginosa [3] and in the experiment with Klebsiella pneumoniae was “inactive” in each case.
In the case of `O=C(O)c1ccc(NCCN2CCN(c3cc4c(cc3F)c(=O)c(C(=O)O)cn4C3CC3)CC2)cc1`, the MIC came out at 2 µM in the experiment with Staphylococcus aureus [1]; 2 µM in the experiment on Bacillus spizizenii; 1 µM (≈ 0.495 µg/mL) with Escherichia coli [2] (read-out: MIC); 1 µM (≈ 0.495 µg/mL) with Pseudomonas aeruginosa [3] (read-out: MIC); 2 µM (≈ 0.989 µg/mL) against Klebsiella pneumoniae; 16.1 µM (≈ 7.96 µg/mL) in the experiment with Staphylococcus aureus [4]. The MIC against Escherichia coli [5] and against Pseudomonas aeruginosa [6] was 1 µM throughout.
As usually defined, the MIC50 is an inhibitory concentration at the 50% level, which refers to growth in some studies and to a panel of isolates in others. A higher MIC50 goes with weaker potency. Consider `COc1cc(Cc2cnc(N)nc2N)cc(OC)c1OCCN1CCN(c2cc3c(cc2F)c(=O)c(C(=O)O)cn3C2CC2)CC1`, for which the MIC50 in experiment [7] worked out at 0.5 µg/mL (≈ 0.789 µM); with Staphylococcus aureus [8], 0.5 µg/mL (≈ 0.789 µM); against Escherichia coli [9] it was 1 µg/mL (≈ 1.58 µM).
Turning to `Nc1ccc(S(N)(=O)=O)cc1`, the MIC result in the experiment on Staphylococcus aureus [1], in the experiment on Bacillus spizizenii, with Escherichia coli [2] and in the experiment on Pseudomonas aeruginosa [3] was “inactive” in each case.
On to `O=C(NNCCN1CCN(c2cc3c(cc2F)c(=O)c(C(=O)O)cn3C2CC2)CC1)c1ccncc1`, for which the MIC in the experiment on Staphylococcus aureus [1] was 1 µM; in the experiment on Bacillus spizizenii, 1 µM; in the experiment on Escherichia coli [2] (read-out: MIC), 4 µM (≈ 1.98 µg/mL); in the experiment with Pseudomonas aeruginosa [3] (read-out: MIC) it was 4 µM (≈ 1.98 µg/mL); against Klebsiella pneumoniae it was 4 µM (≈ 1.98 µg/mL); against Staphylococcus aureus [4], 4 µM (≈ 1.98 µg/mL). For the same compound, the MIC against Streptococcus pyogenes, with Escherichia coli [5] and with Pseudomonas aeruginosa [6] was 8 µM throughout.
